What was measured:
[1] = test system: human MART1-specific CD8 T cells; experiment: In vitro epitope presentation (MHC I) assay by human dendritic cells; assay type: cell-based; settings: human monocyte-derived DCs loaded with 1 μM Zxx-MART1 for 4 h; intracellular staining for CD107, IFN-γ and TNF-α
Protocol: Human monocyte-derived DCs were loaded with 1 μM of scramble-MART1, Z13-MART1, Z14-MART1, Z15-MART1 or Z18-MART1 for 4 h, wash and then incubated o.n. at 37° C. Specific TCR-transfected T cells were then added to DCs and incubated for 5 h with monensin and brefeldinA before intracellular FACS staining for CD107, IFN-γ and TNF-α.
In order to assess the capacity of the ZEBRA CPP truncations to promote epitope presentation by human DCs, the following constructs (Z13-MART1, Z14-MART1, Z15-MART1 and Z18-MART1, with each of the Z13, Z14, Z15 and Z18 CPP conjugated to the HLA-A2 epitope of the tumor associated antigen (TAA) MART1)) were synthesized:
These constructs (Z13, Z14, Z15, and Z18 CPPs conjugated to the HLA-A2 epitope of the tumor associated antigen (TAA) MART1) were assessed for their capacity to promote epitope presentation on MHC class I by human DCs. To this purpose, DCs from an HLA-A2+ donor were prepared from elutriated monocytes, cultured in CelIGro DC medium (CellGenix, Freiburg, Germany) with granulocyte-macrophage colony-stimulating factor (GM-CSF; 2500 U/ml) (Leucomax; Schering-Plough, Kenilworth, N.J.) and interleukin-4 (IL-4; 1000 U/ml) (CellGenix). The immature DCs were matured with cytokines: IL-1β (10 ng/ml), IL-6 (1000 U/ml), tumor necrosis factor α (TNFα; 10 ng/ml) (all from CellGenix) and prostaglandin E2 (1 μg/ml) (Sigma-Aldrich). DCs were rested in CellGro DC medium for 2 hours and loaded with 1 μM Scramble-MART1, Z13-MART1, Z14-MART1, Z15-MART-1 or Z18-MART1 for 4 hrs at 37° C. before being washed once and plated at 300 000 cells per well in round-bottomed 96-well plates. Non-peptide loaded DCs were used as a negative control. T cells were expanded from peripheral blood mononuclear cells using Dynabeads ClinExVivo CD3/CD28 (Life Technologies, Oslo, Norway). Expanded T cells (day 10 post activation) were transfected with the DMFS TCR specific for MART1 by mRNA electroporation. T cells were co-incubated with DCs at a ratio of 1:2 for 5 hours in the presence of GolgiPlug and GolgiStop (both BD Biosciences) before intracellular staining was performed using the following antibodies after FcR blocking; CD4 (RPAT4), CD8 (RPAT8), CD107a (H4A3) (BD Biosciences), IFN-γ (4S.B3) and TNF-α (MAb11) (BD Biosciences), all from eBioscience except where noted. Fixation and permabilization was performed using the PerFix kit from Beckman Coulter according to manufacturer's instructions. Cells were analysed using an LSR II flow cytometer (BD Biosciences) and results were processed with Kaluza (Beckman Coulter) software. All conditions were tested in duplicate, and the experiment was repeated up to three times.

[2] = test system: self antigen (CD8 epitope from gp100)-specific CD8 T cells; experiment: Self antigen-specific CD8 T cell response after vaccination (gp100CD8 restimulation, multimer staining); assay type: in vivo, mice; settings: 10 nmol ZxxOVACD4gp100CD8 s.c. wk0, wk2, wk9, combined with MPLA or Hiltonol
Protocol: The constructs were tested in combination with Hiltonol (A) and MPLA (B). Briefly, Mice were vaccinated three times (wk0, wk2 and wk9) by s.c. injection (right flank) of 10 nmol of Z13OVACD4gp1 00CD8, Z14OVACD4gp1 00CD8, Z18OVACD4gp100CD8 and i.m. injection of […] of Hiltonol (right hind leg) or s.c. injection of 20 μg of MPLA. One week after the last vaccination, spleen cells were restimulated in vitro for 7 days with gp100CD8 peptide and stained as described in Example 6.
To extend the previous findings to self antigen-specific immune response, Z13, Z14 and Z18 conjugated to antigenic cargo containing a self antigen (CD8 epitope from gp100) and CD4 T cell epitope from OVA were synthesized.
Firstly, those constructs were tested with Hiltonol or MPLA adjuvant. To this end, mice were vaccinated three times (wk0, wk2 and wk9) by s.c. injection (right flank) of 10 nmol of Z13OVACD4gp100CD8, Z14OVACD4gp100CD8, Z18OVACD4gp100CD8 and i.m. injection of 50 μg of Hiltonol (right hind leg) or s.c. injection of 20 μg of MPLA. One week after the last vaccination, spleen cells were restimulated in vitro for 7 days with gp100CD8 peptide and stained as follow. Briefly, for surface staining, after FcR blocking, the following mAb were used: CD4 (RMA4-4), CD8 (53-6.7), CD11b (M1/70), CD19 (6D5), all from BD Biosciences. Dead cells were identified with LIVE/DEAD yellow fluorescent reactive dye (L34959) from Life Technologies and were excluded from analyses. MHC-peptide multimers were from Immudex (Copenhagen, Denmark). Multimer gating strategy used a dump gate (CD4, CD11b, CD19) and excluded dead cells.

REVAAAKSSENDRLRLLLK [Z18] was tested, and the “stimulation of human MART1-specific CD8 T cells” value (shortened to “stimulation”) [1] was “markedly less efficient” and the “self antigen-specific CD8 T cell immune response” value [2] was “did not elicit self antigen-specific CD8 T cell responses”.
“KRYKNRVASRKSRAKFK (CPP Z15) [ZEBRA CPP truncation]” was tested, and the “stimulation” value [1] was “particularly efficacious”.
With KRYKNRVASRKSRAKFKQLLQHYREVAAAK [Z14] the “stimulation” value [1] was “particularly efficacious” and the “self antigen-specific CD8 T cell immune response” value [2] was “high self antigen-specific CD8 immune response”.
“KRYKNRVASRKSRAKFKQLLQHYREVAAAKSSENDRLRLLLK [Z13]” was tested, and the “stimulation” value [1] was “particularly efficacious” and the “self antigen-specific CD8 T cell immune response” value [2] was “high self antigen-specific CD8 immune response”.
